As usually defined, the logP is a log measure of how a compound divides between an organic and an aqueous phase. A low value points to lower lipophilicity. A word on the logD: it is lipophilicity at a set pH, counting ionised and neutral species. Read a high logD as higher lipophilicity.

This series is described as follows: method code SF, from Hansch, C. & Leo, A. (1987). Log P database [Dataset]. Pomona College Medicinal Chemistry Project.

`ClC(Cl)=Nc1ccccc1`: the logP is 2.54.
On the same count and under the same terms, in the case of `CO[C@@H]1O[C@H](COC(C)=O)[C@@H](OC(C)=O)[C@H](NC(=O)N(CCCl)N=O)[C@H]1OC(C)=O` it was 0.67.
The compound `CC(=O)c1ccc(N(C)C)cc1` yielded a logD (pH 7.0) of 2.1.
Where the note is “pH 13.0”, `C=CCN(CC=C)CC=C` came in with a logD of 2.59.
Regarding `CCOP(=O)(OCC)SCS(=O)CC` (centres undefined), the logP was determined as 1.69.
As for `CCOC(=O)C(=Cc1ccc(OC)cc1)C(=O)OCC`, the logP was determined as 3.28.
The same measure, in the same setting: in the case of `CNc1ccc(S(=O)(=O)N(C)C)cc1` it was 1.43.
Regarding `Nc1nncs1`, the logD (pH 7.4) is -0.57.
`C1COCCO1` gave a logP of -0.27.
For `COc1ccc(-n2c(C)c(N(C)C)c(=O)n(C)c2=O)cc1`, the logD (pH 7.4) was found to be 1.96.
`NC(=O)c1ncccc1O` gave a logD (pH 7.4) of 0.65.
In turn, `N#CN=[N+]([O-])c1ccc(Br)cc1` came in with a logP of 2.5.
The compound `CC1(C)OC(=O)c2ccccc21` had a logP of 1.73.
For the compound `CCCCC[N+](=O)[O-]`, the logP turned out to be 2.01.
In turn, `c1ccc2oncc2c1` had a logP of 1.63.
With `CCOC(=O)c1ccccn1`, the logP was 0.88.
Regarding `CCOC(=O)C(=Cc1cccc(OC)c1)C(C)=O`, the logP was determined as 2.34.
Take `CN(CCO)N=Nc1ccccc1`: under “pH 12.0”, the logD was 1.71.
The compound `CC(=O)C(=Cc1ccccc1Cl)C(C)=O` came in with a logP of 2.19.
On the same count and under the same terms, then `CC(=O)c1ccccc1Cl`, with 2.09.
Still for that read-out and setting: then `CC(=O)Oc1ccccc1I`, with 2.55; and `NC(=O)C(Cl)(Cl)Cl`, with 1.04.
The compound `COc1ccc2c(c1)N=C(C)NS2(=O)=O` displayed a logP of 0.56.
Take `Cc1c(N(C)C)c(=O)[nH]c(=O)n1-c1ccccc1`: the pH-dependent lipophilicity (logD) (pH 7.4) stood at 1.4.
With `O=c1nccc[nH]1`, the logP is -1.62.
`COc1ccc2cnccc2c1` had a logP of 2.22.
As to `COc1ccccc1CO`, the logD (pH 7.0) was 1.13.
With `CCOC(=O)C(=Cc1ccccc1C)C(=O)OCC`, the logP was determined as 3.22.
Take `CC(=O)OCC(F)(F)F`: the logP was found to be 1.18.
Take `CCC1(CC)OC(=O)c2ccccc21`: the logP was 2.69.
Turning to `C/C=C/C`, the logP was determined as 2.31.
On to `CN(Cc1ccccc1)/N=N/c1ccc(C#N)cc1`, for which the logP was 3.82.
The compound `CC1(C)OC2CC3C4CC(F)C5=CC(=O)C(Cl)=CC5(C)C4(F)C(O)CC3(C)C2(C(=O)CO)O1` (centres undefined) gave a logP of 2.99.
On to `COC(=O)C(=Cc1ccccc1)C(=O)OC`, for which the log partition coefficient (logP) was found to be 2.24.
Same read-out and setting: then `NC(=O)c1ccc(C(O)C(CO)NC(=O)C(Cl)Cl)cc1` (centres undefined), with -0.48; and `CCCCC(=Cc1ccccc1)C(=O)NC(C)CC` (centres undefined), with 4.07.
Consider `CN(C)c1ccc([N+](=O)[O-])cc1`, for which the logD (pH 7.0) was 2.27.
Compound `CN(C(=O)CC[N+](=O)[O-])c1ccc(S(=O)(=O)N(C)C)cc1` showed a logP of 0.3.
As for `C/N=C/c1ccccc1`, the logP turned out to be 1.64.
For `CCOC(=O)C(=Cc1cccc(OC)c1)C(=O)OCC`, the logP was 3.18.
`COc1cc(C=NO)ccc1OCCOC(=O)c1cccc(Cl)c1` registered a logP of 3.94.
Still for that read-out and setting: in the case of `CN(C)C(=O)/C=C/c1ccccc1` it was 1.73; in that of `O=NN(Cc1ccccc1)c1ccccc1`, 3.38; in that of `CCCNCCC`, 1.73.
In turn, `O=C(CO)NCc1ccccc1` gave a logP of 0.55.
Still for that read-out and setting: in the case of `Brc1cccc(Br)c1` it was 3.75; in that of `COC(=O)c1cccc(O)c1`, 1.89.
Take `NNc1ccccc1`: the logD (pH 8.9) was 1.25.
As to `OCCC(F)(F)F`, the logP came out at 0.39.
For `O=CNc1cccc([N+](=O)[O-])c1`, the logD (pH 7.0) is 1.4.
As for `CC(O)COc1cccc2oc(C(=O)O)cc(=O)c12` (centres undefined), where the note is “pH 0.5”, the logD is 1.32.
Regarding `CN(C)C(=O)c1ccsc1`, the logP was 0.55.
`Cn1c(N)cc2ccccc21` came in with a logD (pH 8.0) of 1.72.
As for `Cn1nnc2ccccc2c1=O`, the logP was determined as 0.84.
As for `Cc1ccc(N)nc1`, the lipophilicity (logP) turned out to be 1.02.
Still for that read-out and setting: in the case of `O=C(Nc1ccc(Cl)c(Cl)c1)C1CCCC1` it was 4.47; in that of `Cc1cccc(NC(=O)c2ccccc2)c1`, 2.75; in that of `Cn1c(=O)c(=O)n(C)c2ccccc21`, 0.08.
`CC(=O)NCc1ccccc1` returned a logP of 0.95.
`CCOC(=O)CCc1ccccc1` displayed a logP of 2.73.
On the same count and under the same terms, then `O=[N+]([O-])c1cccc(I)c1`, with 2.94.
Same read-out and setting: then `O=C(Nc1ccccc1)NC(CO)(CO)CO`, with 0.43.
Still for that read-out and setting: then `[O-][n+]1ccccc1SCc1ccccc1`, with 1.24; and `O=S1(=O)NC(c2cccs2)=Nc2ccccc21`, with 1.68.
Compound `CC(C)(C)C(=O)Nc1ccccc1` displayed a logP of 1.99.
Turning to `CO[C@H]1C=CO[C@@]2(C)Oc3c(C)c(O)c4c(O)c(c(CN5CCN(C)CC5)c(O)c4c3C2=O)NC(=O)/C(C)=C\C=C/[C@@H](C)[C@@H](O)[C@@H](C)[C@H](O)[C@H](C)[C@@H](OC(C)=O)[C@H]1C`, the logP came to 1.76.
Compound `CCC1OC(=O)C(C)C(OC2CC(C)(O)C(C)O2)C(C)C(OC2OC(C)C(O)C(N(C)C)C2O)C(C)(O)CC(C)C(=O)C(C)C(O)C1(C)O` (centres undefined) gave a logP of 1.44.
`CC(C)(C)C`: the logP was 3.11.
For `COc1cc(Cl)cc(Cl)c1`, the logP was 3.74.
The same measure, in the same setting: then `C[C@@H]1C[C@H]2[C@@H]3CCC4=CC(=O)C=C[C@]4(C)[C@@]3(F)[C@@H](O)C[C@]2(C)[C@@]1(O)C(=O)CO`, with 1.99.
`ON=C(c1ccccc1)c1ccccc1` returned a logP of 3.2.
With `CCC(C)NC(=O)C=Cc1ccc(Cl)cc1` (centres undefined), the logP is 3.37.
`CC(C)c1ccc(C(N)=O)cc1`: the logP was 2.14.
Turning to `CC1(C)N=C(N)N=C(N)N1c1ccc(OCC(=O)N2CCOCC2)cc1`, the logD (pH 13.0) was -1.18.
As to `CC(C)Oc1ccccc1OC(=O)N(C)C`, the logP amounted to 2.06.
`Cc1ccccc1C#N` registered a logP of 2.21.
The compound `Clc1ccc2[nH]c(CCc3nc4cc(Cl)ccc4[nH]3)nc2c1` displayed a logP of 1.13.
Under “pH 12.0”, `CN(C)/N=N/c1ccccc1CO` showed a logD of 1.73.
`O=c1cc(-c2ccccc2)oc2cc(O)ccc12` displayed a logP of 3.62.
In the case of `NC(=O)c1ccco1`, the logD (pH 7.0) was -0.11.
The compound `CC(=O)Oc1cccc(C(F)(F)F)c1` returned a logP of 2.63.
`CCCCCCCNC(=O)c1ccccc1` came in with a logP of 2.94.
For `CCCCC1OC(=O)c2cc(N(CCO)CCO)ccc21` (centres undefined), the logP came out at 1.34.
Compound `CC(=O)Nc1ccccc1C(C)C` registered a logD (pH 7.4) of 1.71.
Compound `CC(=O)Nc1ccc(Cl)c(Cl)c1` yielded a logP of 2.96.
Still for that read-out and setting: then `CCOC(=O)C(=Cc1ccc(OC)c(OC)c1)C(=O)OCC`, with 2.89.
In turn, `FC(F)(F)c1ccc2cccnc2c1` registered a logD (pH 7.0) of 3.02.
`CCOP(=O)(OCC)Oc1ccc(SC)c(C)c1` gave a logP of 3.28.
The compound `CCOC(=O)C(=Cc1ccc(Cl)cc1Cl)C(C)=O` gave a logP of 3.67.
In the case of `OCCCc1nc2ccccc2[nH]1`, the logP is 1.25.
The same measure, in the same setting: then `CC1(C)Oc2c(O)cccc2C1=O`, with 1.87; and `CCCCC1OC(=O)c2cc(Cl)ccc21` (centres undefined), with 3.53; and `O=C(O)CS`, with 0.09.
Take `CC(=O)Nc1cccc(OC(C)=O)c1`: the logD (pH 7.0) is 1.03.
The compound `COc1ccccc1C(=O)c1ccncc1` came in with a logP of 1.86.
The compound `Nc1ccccc1O` had a logP of 0.57.
Same read-out and setting: then `COc1ccc([N+]([O-])=NC#N)cc1`, with 2.15; and `Nc1cc(OCC(=O)O)ccc1Cl`, with 1.16.
Compound `COc1nnccc1N(C)C` had a logP of 0.9.
Compound `CN(C)C(=O)N(c1ccccc1)c1ccccc1` showed a logP of 2.8.
On the same count and under the same terms, in the case of `CC(=O)Nc1ccccc1NC(C)=O` it was -0.03; in that of `CC(=O)c1ccccc1OC(=O)N(C)C`, 0.93; in that of `O=C(OC(=O)c1ccccc1)c1ccccc1`, 2.26.
On to `CNP(=O)(OC)Oc1ccc(SC)cc1` (centres undefined), for which the logP amounted to 1.81.
Still for that read-out and setting: then `NNC(=O)c1ccncc1`, with -0.5.
The same measure, in the same setting: in the case of `Cc1ccc(C(=O)c2ccncc2)cc1` it was 2.51.
On to `CCCNc1c(C)n(C)c(=O)n(-c2ccccc2)c1=O`, for which, under “pH 7.4”, the logD was 1.2.
Regarding `C(=N\N1CCCCC1)/c1ccccc1`, the logP was determined as 3.04.
On the same count and under the same terms, in the case of `CCc1ccco1` it was 2.4; in that of `NC(=O)NN=CCCc1ccccc1`, 2.32; in that of `CC(=O)N(C)/N=N/c1ccc(F)cc1`, 2.77.
`COc1cn[nH]c1` displayed a logP of 0.37.
`O=[N+]([O-])c1cn[nH]c1` came in with a logP of 0.59.
`O=c1cccccc1O` showed a logD (pH 5.0) of 0.75.
Consider `CNC(=S)NC`, for which the logP was -0.24.
On to `CCCc1ccc2c(c1)C(=O)c1ccc(NC(C)=O)cc1S2(=O)=O`, for which the logP amounted to 3.51.
Same read-out and setting: in the case of `C[C@]12CCC(=O)C=C1CC[C@@H]1[C@@H]2[C@@H](O)C[C@@]2(C)[C@H]1CC[C@]2(O)C(=O)CO` it was 1.61.
For `O=C(c1ccccc1)c1cccnc1`, the logD (pH 8.0) stood at 1.88.
On to `CCOC(=O)/C(=C/c1cccc(F)c1)C(C)=O`, for which the logP came out at 2.46.
On the same count and under the same terms, in the case of `COc1ccc(C(C)=O)c(O)c1` it was 1.98.
Compound `NC(=O)Cc1ccsc1` displayed a logP of 0.31.
As for `CN(C)C(=O)Oc1ccccc1Br`, the logP came out at 2.17.
In turn, `NNC(=O)c1ccccc1` came in with a logP of 0.21.
The compound `NC(=O)C(=Cc1ccccc1)C(N)=O` registered a logP of -0.13.
On the same count and under the same terms, then `O=S1(=O)N=C(C2CCCC2)Nc2ccccc21`, with 1.83; and `O=C(Nc1ccccc1)Oc1ccccc1`, with 3.3; and `C=CC(=O)c1ccccc1`, with 1.88.
`O=C1OCc2ccccc21` gave a logP of 0.8.
Take `CN(C)CCCN1c2ccccc2Sc2ccc(S(C)(=O)=O)cc21`: the logP amounted to 3.5.
The compound `O=CNc1ccc(F)cc1` returned a logD (pH 7.0) of 1.27.
Regarding `CCCc1ccncc1`, the lipophilicity (logP) is 2.1.
Regarding `OCC(F)(F)C(F)(F)F`, the logP amounted to 1.23.
Take `O=C(O)COc1ccc(Cl)c(I)c1`: the logP is 3.1.
In turn, `O=C(Nc1ccc(Cl)c(Cl)c1)C(F)(F)F` showed a logP of 3.9.

(Values after the SangsterLogP compilation.)
